Test results published in ChEMBL document CHEMBL1130368, “Potent carboxylate inhibitors of stromelysin containing P2 piperazic acids and P1 biaryl moeities” (Bioorg Med Chem Lett, 1997).

target: Stromelysin-1 (Homo sapiens, UniProt P08254); experiment: Inhibition of Matrix metalloprotease-3 by MCA peptide assay
Sequence (P08254 whole entry): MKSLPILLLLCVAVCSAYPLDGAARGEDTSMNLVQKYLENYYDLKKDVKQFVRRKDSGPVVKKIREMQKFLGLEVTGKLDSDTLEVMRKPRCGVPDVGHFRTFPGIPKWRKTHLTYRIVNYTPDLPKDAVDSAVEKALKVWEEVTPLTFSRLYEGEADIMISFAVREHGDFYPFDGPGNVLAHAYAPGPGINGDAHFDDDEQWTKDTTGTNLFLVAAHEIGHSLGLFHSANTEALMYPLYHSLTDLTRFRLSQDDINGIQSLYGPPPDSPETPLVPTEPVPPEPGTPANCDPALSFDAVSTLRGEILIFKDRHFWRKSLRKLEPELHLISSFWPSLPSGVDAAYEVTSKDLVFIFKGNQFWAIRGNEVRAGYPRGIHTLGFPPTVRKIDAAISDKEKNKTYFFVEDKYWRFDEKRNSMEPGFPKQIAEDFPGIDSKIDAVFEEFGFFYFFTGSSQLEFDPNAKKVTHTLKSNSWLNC

| SMILES | Ki | IC50 |
| --- | --- | --- |
| CCCC[C@@H](C[C@@H](CCc1ccc(-c2ccccc2)cc1)C(=O)N[C@@H](Cc1ccc(OC)cc1)C(=O)NC)C(=O)O | 0.021 µM | – |
| CNC(=O)[C@@H]1CCCNN1C(=O)[C@H](CC(C)C)[C@H](C)C(=O)NO | – | 0.03 µM |
| CCCC[C@@H](C[C@@H](CCc1ccc(-c2ccccc2)cc1)C(=O)N1NCCC[C@H]1C(=O)NC)C(=O)O | 0.042 µM | – |
| CNC(=O)[C@H](Cc1ccc(OC)cc1)NC(=O)[C@H](CCc1ccccc1)C[C@H](C)C(=O)O | – | 55 µM |
| CNC(=O)[C@H](Cc1ccc(OC)cc1)NC(=O)[C@H](CCc1ccc(-c2ccccc2)cc1)C[C@H](C)C(=O)O | – | 0.081 µM |

Now from value to molecule:

| Ki | IC50 | SMILES |
| --- | --- | --- |
| – | > 200 µM | CNC(=O)[C@@H]1CCCNN1C(=O)[C@H](CCOc1ccc(C(C)C)cc1)N[C@H](C)C(=O)O |
| 0.077 µM | – | CNC(=O)[C@@H]1CCCNN1C(=O)[C@H](CCOc1ccc(-c2ccccc2)cc1)N[C@H](C)C(=O)O |
| 0.55 µM | – | CCCCc1ccc(OCC[C@H](N[C@H](C)C(=O)O)C(=O)N2NCCC[C@H]2C(=O)NC)cc1 |
| 0.552 µM | – | CNC(=O)[C@@H]1CCCNN1C(=O)[C@H](CCOc1ccc(Cc2ccccc2)cc1)N[C@H](C)C(=O)O |
| – | > 200 µM | CNC(=O)[C@@H]1CCCNN1C(=O)[C@H](CCOc1ccc(CC2CCCC2)cc1)N[C@H](C)C(=O)O |
